Results from ChEMBL document CHEMBL4800722, “Data for DCP probe BI 605906” (2021).

Columns and labels:
[1] = target: Serine/threonine-protein kinase N1 (Homo sapiens) (UniProt Q16512); conditions: Compound concentration 1.0 uM
[2] = test system: Serine/threonine-protein kinase B-raf (Homo sapiens), P15056 [V600E]; test: BRAF V599E Invitrogen Lab (UK) kinase screen (BI); conditions: Compound concentration 10.0 uM
[3] = target: Membrane-associated tyrosine- and threonine-specific cdc2-inhibitory kinase (Homo sapiens) (UniProt Q99640); conditions: Compound concentration 1.0 uM
[4] = target: Ribosomal protein S6 kinase beta-1 (Homo sapiens) (UniProt P23443); test: S6K1 DUNDEE kinase screen (BI); conditions: Compound concentration 10.0 uM
[5] = target: Casein kinase I (Homo sapiens) (UniProt Q9HCP0+P78368+P48730+P49674+P48729); test: CK1 DUNDEE kinase screen (BI); format: protein assay; conditions: Rattus norvegicus; Compound concentration 10.0 uM
[6] = target: Glycogen synthase kinase-3 beta (Homo sapiens) (UniProt P49841)
Glycogen synthase kinase-3 beta (Homo sapiens), sequence (P49841 whole entry, looked up): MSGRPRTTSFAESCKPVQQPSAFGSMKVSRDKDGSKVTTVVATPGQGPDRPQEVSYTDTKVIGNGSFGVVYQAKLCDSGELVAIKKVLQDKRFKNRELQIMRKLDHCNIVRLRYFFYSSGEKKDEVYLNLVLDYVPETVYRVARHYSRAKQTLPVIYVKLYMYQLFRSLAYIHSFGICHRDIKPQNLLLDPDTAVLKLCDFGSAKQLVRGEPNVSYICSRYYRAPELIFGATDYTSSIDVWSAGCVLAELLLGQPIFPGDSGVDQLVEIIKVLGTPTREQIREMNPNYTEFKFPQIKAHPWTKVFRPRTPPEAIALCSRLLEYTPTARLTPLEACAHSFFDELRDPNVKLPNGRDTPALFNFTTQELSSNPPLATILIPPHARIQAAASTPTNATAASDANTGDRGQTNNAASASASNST

[7] = target: Ribosomal protein S6 kinase beta-2 (Homo sapiens) (UniProt Q9UBS0); test: RPS6KB2 (P70S6KB) Invitrogen Lab (UK) kinase screen (BI); conditions: Compound concentration 1.0 uM
[8] = target: Mitogen-activated protein kinase 12 (Homo sapiens) (UniProt P53778); conditions: Compound concentration 1.0 uM
[9] = target: T1, Cyclin-G-associated kinase (Homo sapiens, UniProt O14976); test: Dose response measurement (GAK)
T1 sequence (O14976 whole entry): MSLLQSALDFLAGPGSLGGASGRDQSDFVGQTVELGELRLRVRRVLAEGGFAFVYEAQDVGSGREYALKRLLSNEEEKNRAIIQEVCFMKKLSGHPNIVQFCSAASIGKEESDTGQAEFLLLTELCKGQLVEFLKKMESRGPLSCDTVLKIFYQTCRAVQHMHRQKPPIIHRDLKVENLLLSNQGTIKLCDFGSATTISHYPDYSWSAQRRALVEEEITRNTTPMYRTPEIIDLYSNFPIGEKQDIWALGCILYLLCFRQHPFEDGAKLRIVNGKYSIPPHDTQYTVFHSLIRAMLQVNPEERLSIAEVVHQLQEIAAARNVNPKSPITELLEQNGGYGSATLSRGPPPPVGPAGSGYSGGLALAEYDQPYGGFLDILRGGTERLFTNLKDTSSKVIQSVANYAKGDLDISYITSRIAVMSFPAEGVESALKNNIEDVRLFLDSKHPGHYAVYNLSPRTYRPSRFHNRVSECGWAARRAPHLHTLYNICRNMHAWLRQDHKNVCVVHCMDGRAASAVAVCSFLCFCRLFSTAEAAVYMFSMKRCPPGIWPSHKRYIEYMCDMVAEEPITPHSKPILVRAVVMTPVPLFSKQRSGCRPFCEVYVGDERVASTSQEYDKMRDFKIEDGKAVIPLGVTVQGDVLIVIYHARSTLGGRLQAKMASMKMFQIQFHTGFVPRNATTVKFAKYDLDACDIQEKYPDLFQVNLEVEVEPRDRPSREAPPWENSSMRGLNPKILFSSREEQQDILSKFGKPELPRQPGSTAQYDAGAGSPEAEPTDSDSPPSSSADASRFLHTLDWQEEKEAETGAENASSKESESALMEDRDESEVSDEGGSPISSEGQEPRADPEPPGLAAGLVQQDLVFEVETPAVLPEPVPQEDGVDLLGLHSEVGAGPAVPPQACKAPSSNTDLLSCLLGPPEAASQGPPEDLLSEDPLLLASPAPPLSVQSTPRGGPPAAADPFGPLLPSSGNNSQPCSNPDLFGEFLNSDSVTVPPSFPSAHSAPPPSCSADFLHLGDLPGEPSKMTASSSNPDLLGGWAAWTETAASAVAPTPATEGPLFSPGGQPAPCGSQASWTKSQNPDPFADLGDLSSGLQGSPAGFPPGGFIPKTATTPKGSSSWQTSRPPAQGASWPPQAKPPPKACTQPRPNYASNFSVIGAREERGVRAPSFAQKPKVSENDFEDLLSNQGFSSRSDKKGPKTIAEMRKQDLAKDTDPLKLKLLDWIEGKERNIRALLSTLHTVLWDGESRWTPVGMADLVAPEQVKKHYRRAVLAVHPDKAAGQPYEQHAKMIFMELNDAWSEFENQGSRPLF

[10] = target: Serine/threonine-protein kinase/endoribonuclease IRE1 (Homo sapiens) (UniProt O75460); conditions: Compound concentration 1.0 uM
[11] = target: Voltage-dependent N-type calcium channel subunit alpha-1B (Rattus norvegicus) (UniProt Q02294); test: CA+/N/RA Eurofins SafetyScreen44 (BI); conditions: Compound concentration 10.0 uM
Rattus norvegicus = species on record: Rattus norvegicus; conditions: Compound concentration 10.0 uM
[12] = target: MAP kinase-activated protein kinase 2 (Homo sapiens) (UniProt P49137); test: MAPKAPK2 DUNDEE kinase screen (BI); conditions: Compound concentration 10.0 uM
MAP kinase-activated protein kinase 2 (Homo sapiens), sequence (P49137 whole entry, looked up): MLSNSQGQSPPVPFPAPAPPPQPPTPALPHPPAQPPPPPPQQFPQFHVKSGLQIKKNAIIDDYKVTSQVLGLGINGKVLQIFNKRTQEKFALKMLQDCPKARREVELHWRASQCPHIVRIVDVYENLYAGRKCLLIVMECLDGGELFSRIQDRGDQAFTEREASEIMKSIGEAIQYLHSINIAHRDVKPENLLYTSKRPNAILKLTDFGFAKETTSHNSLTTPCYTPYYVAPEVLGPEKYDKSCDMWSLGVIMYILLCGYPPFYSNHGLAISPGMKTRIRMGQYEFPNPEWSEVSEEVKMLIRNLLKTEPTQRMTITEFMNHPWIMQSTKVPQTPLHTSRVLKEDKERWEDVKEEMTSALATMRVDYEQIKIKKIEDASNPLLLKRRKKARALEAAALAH

[13] = target: 5-hydroxytryptamine receptor 5A (Homo sapiens) (UniProt P47898); conditions: Compound concentration 10.0 uM
[14] = target: Cyclin-dependent kinase 2/cyclin E1 (Homo sapiens) (UniProt P24864+P24941); conditions: Compound concentration 1.0 uM
[15] = target: Serine/threonine-protein kinase D2 (Homo sapiens) (UniProt Q9BZL6); conditions: Compound concentration 1.0 uM
[16] = target: Tyrosine-protein kinase Fyn (Homo sapiens) (UniProt P06241); conditions: Compound concentration 1.0 uM
[17] = target: MAP/microtubule affinity-regulating kinase 3 (Homo sapiens) (UniProt P27448); test: MARK3 DUNDEE kinase screen (BI); conditions: Compound concentration 10.0 uM
[18] = target: Thromboxane-A synthase (Homo sapiens) (UniProt P24557); test: THRO SYN(HU) Eurofins SafetyScreen44 (BI); conditions: Compound concentration 10.0 uM
Chymase (Homo sapiens) = Chymase (Homo sapiens) (UniProt P23946); conditions: Compound concentration 10.0 uM
[19] = target: Bone morphogenetic protein receptor type-1A (Homo sapiens) (UniProt P36894); conditions: Compound concentration 1.0 uM
Bone morphogenetic protein receptor type-1A (Homo sapiens), sequence (P36894 whole entry): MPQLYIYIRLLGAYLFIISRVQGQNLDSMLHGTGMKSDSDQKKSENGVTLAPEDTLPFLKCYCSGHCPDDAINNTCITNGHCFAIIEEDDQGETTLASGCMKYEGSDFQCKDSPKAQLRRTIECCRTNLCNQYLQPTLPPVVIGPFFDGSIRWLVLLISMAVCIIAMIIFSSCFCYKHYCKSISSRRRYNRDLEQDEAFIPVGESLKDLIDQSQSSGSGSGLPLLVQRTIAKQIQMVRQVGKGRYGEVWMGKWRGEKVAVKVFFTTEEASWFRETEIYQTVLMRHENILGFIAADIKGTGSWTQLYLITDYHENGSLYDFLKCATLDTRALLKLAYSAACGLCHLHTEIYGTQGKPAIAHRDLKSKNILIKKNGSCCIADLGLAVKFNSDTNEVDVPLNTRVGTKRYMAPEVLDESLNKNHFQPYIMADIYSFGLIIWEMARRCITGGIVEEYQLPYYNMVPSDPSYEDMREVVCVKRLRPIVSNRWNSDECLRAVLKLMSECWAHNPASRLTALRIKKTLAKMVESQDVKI

[20] = target: MAP kinase-interacting serine/threonine-protein kinase 1 (Homo sapiens) (UniProt Q9BUB5); test: MKNK1 Invitrogen Lab (UK) kinase screen (BI); conditions: Compound concentration 1.0 uM
[21] = target: Beta-adrenergic receptor kinase 1 (Homo sapiens) (UniProt P25098); conditions: Compound concentration 1.0 uM
[22] = target: Homeodomain-interacting protein kinase 3 (Homo sapiens) (UniProt Q9H422); conditions: Compound concentration 1.0 uM
[23] = target: Ribosomal protein S6 kinase alpha-3 (Homo sapiens) (UniProt P51812)
Ribosomal protein S6 kinase alpha-3 (Homo sapiens), sequence (P51812 whole entry): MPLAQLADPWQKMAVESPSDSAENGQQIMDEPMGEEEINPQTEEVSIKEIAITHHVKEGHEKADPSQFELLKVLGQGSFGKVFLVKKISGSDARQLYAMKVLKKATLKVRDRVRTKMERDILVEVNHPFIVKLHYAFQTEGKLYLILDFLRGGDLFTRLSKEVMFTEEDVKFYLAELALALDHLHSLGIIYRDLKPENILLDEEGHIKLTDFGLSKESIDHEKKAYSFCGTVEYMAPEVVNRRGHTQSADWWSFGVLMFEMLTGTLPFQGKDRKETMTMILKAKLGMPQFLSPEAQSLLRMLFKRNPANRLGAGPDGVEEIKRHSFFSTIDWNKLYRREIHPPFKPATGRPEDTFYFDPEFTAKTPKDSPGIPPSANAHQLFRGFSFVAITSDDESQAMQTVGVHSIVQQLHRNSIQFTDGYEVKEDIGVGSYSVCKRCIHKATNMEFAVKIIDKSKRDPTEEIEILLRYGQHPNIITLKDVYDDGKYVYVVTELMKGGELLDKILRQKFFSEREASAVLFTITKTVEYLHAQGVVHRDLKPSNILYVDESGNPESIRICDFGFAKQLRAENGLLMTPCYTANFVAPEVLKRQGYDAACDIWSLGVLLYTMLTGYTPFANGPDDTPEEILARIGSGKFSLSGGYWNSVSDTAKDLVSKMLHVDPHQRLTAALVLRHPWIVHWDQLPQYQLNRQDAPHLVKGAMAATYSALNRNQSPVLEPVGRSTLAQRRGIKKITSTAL

[24] = target: Serine/threonine-protein kinase 38 (Homo sapiens) (UniProt Q15208); test: STK38 (NDR) Invitrogen Lab (UK) kinase screen (BI); conditions: Compound concentration 1.0 uM
[25] = target: Sodium-dependent serotonin transporter (Homo sapiens) (UniProt P31645); conditions: Compound concentration 10.0 uM
[26] = target: Mitogen-activated protein kinase 10 (Homo sapiens) (UniProt P53779); conditions: Compound concentration 1.0 uM
Mitogen-activated protein kinase 10 (Homo sapiens), sequence (P53779 whole entry): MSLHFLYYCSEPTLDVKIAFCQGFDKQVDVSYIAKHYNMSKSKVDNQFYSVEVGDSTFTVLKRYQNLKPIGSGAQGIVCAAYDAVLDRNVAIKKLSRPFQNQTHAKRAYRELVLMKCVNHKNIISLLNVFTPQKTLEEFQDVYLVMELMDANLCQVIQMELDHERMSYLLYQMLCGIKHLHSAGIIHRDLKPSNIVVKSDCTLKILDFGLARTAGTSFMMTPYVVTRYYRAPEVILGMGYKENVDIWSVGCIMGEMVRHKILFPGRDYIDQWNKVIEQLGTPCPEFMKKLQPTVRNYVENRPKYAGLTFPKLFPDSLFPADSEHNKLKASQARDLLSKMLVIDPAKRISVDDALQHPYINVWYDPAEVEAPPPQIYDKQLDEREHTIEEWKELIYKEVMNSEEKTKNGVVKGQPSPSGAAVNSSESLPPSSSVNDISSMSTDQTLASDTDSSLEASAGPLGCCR

[27] = target: Ephrin type-A receptor 7 (Homo sapiens) (UniProt Q15375); conditions: Compound concentration 1.0 uM
[28] = target: Serine/threonine-protein kinase 17B (Homo sapiens) (UniProt O94768); conditions: Compound concentration 1.0 uM
[29] = target: Ribosomal protein S6 kinase alpha-6 (Homo sapiens) (UniProt Q9UK32); conditions: Compound concentration 1.0 uM
[30] = target: Aurora kinase A (Homo sapiens) (UniProt O14965)
Aurora kinase A (Homo sapiens), sequence (O14965 whole entry): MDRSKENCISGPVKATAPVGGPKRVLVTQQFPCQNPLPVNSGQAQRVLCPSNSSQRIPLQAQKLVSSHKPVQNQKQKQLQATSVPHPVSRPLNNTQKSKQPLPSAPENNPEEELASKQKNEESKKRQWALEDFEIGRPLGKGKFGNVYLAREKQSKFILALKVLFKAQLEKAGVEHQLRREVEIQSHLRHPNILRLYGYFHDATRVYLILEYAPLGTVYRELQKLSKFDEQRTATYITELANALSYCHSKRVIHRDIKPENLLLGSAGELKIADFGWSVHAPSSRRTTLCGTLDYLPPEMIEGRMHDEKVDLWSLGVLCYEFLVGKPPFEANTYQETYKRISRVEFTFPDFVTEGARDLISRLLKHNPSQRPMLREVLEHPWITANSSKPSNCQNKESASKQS

[31] = target: Mitogen-activated protein kinase kinase kinase 3 (Homo sapiens) (UniProt Q99759); conditions: Compound concentration 1.0 uM
[32] = target: Tyrosine-protein kinase ABL2 (Homo sapiens) (UniProt P42684); conditions: Compound concentration 1.0 uM
[33] = target: Glycogen synthase kinase-3 alpha (Homo sapiens) (UniProt P49840); conditions: Compound concentration 1.0 uM
[34] = target: Fibroblast growth factor receptor 4 (Homo sapiens) (UniProt P22455); conditions: Compound concentration 1.0 uM
[35] = target: T1, Cyclin-G-associated kinase; test: NanoBRET (SGC-FFM) (GAK)
[36] = target: Protein kinase C beta type (Homo sapiens) (UniProt P05771); conditions: Compound concentration 1.0 uM
[37] = target: 5-hydroxytryptamine receptor 2C (Homo sapiens) (UniProt P28335); conditions: Compound concentration 10.0 uM
[38] = target: Dual specificity tyrosine-phosphorylation-regulated kinase 1B (Homo sapiens) (UniProt Q9Y463)
Dual specificity tyrosine-phosphorylation-regulated kinase 1B (Homo sapiens), sequence (Q9Y463 whole entry, looked up): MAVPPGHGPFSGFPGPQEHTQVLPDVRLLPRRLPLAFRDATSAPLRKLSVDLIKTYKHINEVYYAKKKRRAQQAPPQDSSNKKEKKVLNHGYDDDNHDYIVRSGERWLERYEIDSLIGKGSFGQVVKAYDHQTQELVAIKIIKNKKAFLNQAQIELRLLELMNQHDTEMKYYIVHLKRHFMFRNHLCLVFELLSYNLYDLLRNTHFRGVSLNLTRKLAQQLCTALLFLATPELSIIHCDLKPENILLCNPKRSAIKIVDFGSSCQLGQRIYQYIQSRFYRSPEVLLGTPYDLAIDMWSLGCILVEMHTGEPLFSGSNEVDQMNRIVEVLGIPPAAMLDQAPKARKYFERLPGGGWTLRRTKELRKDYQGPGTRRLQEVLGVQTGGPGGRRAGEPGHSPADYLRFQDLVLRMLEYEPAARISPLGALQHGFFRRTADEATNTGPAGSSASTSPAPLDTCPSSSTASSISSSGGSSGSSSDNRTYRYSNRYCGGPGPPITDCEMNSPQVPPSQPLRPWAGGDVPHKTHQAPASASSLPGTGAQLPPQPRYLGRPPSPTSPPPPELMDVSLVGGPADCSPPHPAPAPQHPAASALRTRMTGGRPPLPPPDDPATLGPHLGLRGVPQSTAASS

[39] = target: Alpha-2B adrenergic receptor (Homo sapiens) (UniProt P18089); conditions: Compound concentration 10.0 uM
[40] = target: Serine/threonine-protein kinase PAK 6 (Homo sapiens) (UniProt Q9NQU5); conditions: Compound concentration 1.0 uM
[41] = target: Sodium/potassium-transporting ATPase (Sus scrofa) (UniProt P05027+P05024+D2WKD8+D2WKD7+F1ST41); conditions: Compound concentration 10.0 uM
[42] = target: Serine/threonine-protein kinase D3 (Homo sapiens) (UniProt O94806); conditions: Compound concentration 1.0 uM

Compound: CCC(F)(F)c1cc(N2CCC(S(C)(=O)=O)CC2)nc2sc(C(N)=O)c(N)c12 [BI-605906]
- residual activity [1]: 87%
- residual activity [2]: 34%
- residual activity [3]: 90%
- residual activity [4]: 56.3%
- residual activity [5]: 68.6%
- residual activity ([6]; Compound concentration 1.0 uM): 93%
- residual activity ([6]; Compound concentration 10.0 uM): 87%
- residual activity [7]: 86%
- residual activity [8]: 99%
- IC50 [9]: 188 nM
- residual activity [10]: 82%
- residual activity [11]: 86%
- inhibition (Rattus norvegicus): 51.9%
- residual activity [12]: 94.5%
- inhibition [13]: 6.16%
- residual activity [14]: 94%
- residual activity [15]: 95%
- residual activity [16]: 89%
- residual activity [17]: 63.8%
- residual activity [18]: 86%
- residual activity (Chymase (Homo sapiens)): 93%
- residual activity [19]: 100%
- residual activity [20]: 107%
- residual activity [21]: 95%
- residual activity [22]: 95%
- residual activity ([23]; Compound concentration 1.0 uM): 94%
- residual activity ([23]; Compound concentration 10.0 uM): 95%
- residual activity [24]: 83%
- residual activity [25]: 108%
- residual activity [26]: 101%
- residual activity [27]: 87%
- residual activity [28]: 97%
- residual activity [29]: 98%
- residual activity ([30]; Compound concentration 1.0 uM): 93%
- residual activity ([30]; Compound concentration 10.0 uM): 38%
- residual activity [31]: 98%
- residual activity [32]: 91%
- residual activity [33]: 99%
- residual activity [34]: 96%
- IC50 [35]: 6500 nM (not active)
- residual activity [36]: 99%
- inhibition [37]: -5.41%
- residual activity ([38]; Compound concentration 1.0 uM): 95%
- residual activity ([38]; Compound concentration 10.0 uM): 91%
- inhibition [39]: 9.66%
- residual activity [40]: 105%
- residual activity [41]: 105%
- residual activity [42]: 91%
